Tests used:
[1] = Rat ocular distribution model, retina after topical drop; assay type: in vivo; details: Lewis rats, 10 μL topical drop
Method: Eye drops were prepared by adding compounds at a theoretical concentration of 10 mg/mL to a 2 mL microcentrifuge tube before adding a stir bar and the selected formulation that consisted of (w/v) hydroxypropyl β-cyclodextrin (Trappsol) (20%), hydroxyl propyl methylcellulose (0.5%) and EDTA (1.6 mM) in phosphate buffered saline. Tubes containing compound in eye drop formulation were heated to 60-65° C. and stirred at least 4 hours to overnight. The tubes were removed from the heat bath and centrifuged at 10,000 ref for 5 minutes to clear the solution of any residual drug not in solution. The supernatant was removed from the tubes and one 10 μL sample was removed for HPLC analysis of solubilized by HPLC using an ACE C18 column (4.5 mm×150 mm, 5 m), eluted with acetonitrile/methanol/water mixture with H3PO4, pH 3.5 (50:30:20) with a flow rate of 2.5 mL/min. The solubilized concentration of each compound was calculated by interpolation from a standard curve based on reference standards solubilized in methanol when the assay was validated.
Compounds were applied as a single 10 μL drop to rats and the aqueous humor, and the posterior segment of the eye (vitreous body and retina) were collected from each eye at the time point assigned after the eye was irrigated to remove any residual formulation present. Tissues were collected in pre-weighed collection tubes and the tissue weight was determined for each sample. An internal standard (IS) mixture containing a reference compound at a ratio of 1 μL to 4 mg tissue was added to samples, mixed and then diluted×4.25 in acetonitrile:methanol (9:1). Aqueous humour samples were vortex mixed for 10 s. The vitreous body & retina were vortex mixed 2 times each for 10 s, and further mixed for 6 min on a tabletop shaker at 750 rpm followed by final vortex mixing (10 s). All samples were centrifuged to pellet any particulate matter and the supernatant was transferred to LC vials. A 10 μL sample was then applied to the HPLC during LC/MS/MS analysis. A calibration curve for compounds (0.588-176.471 ng/mL) was prepared in rat plasma to estimate concentrations of compounds in each of the matrices analyzed using the area under curve (AUC) normalized to internal standard AUC for determining response. The assumption was made that 1 mg tissue is equivalent to 1 μL plasma. Concentrations measured in each tissue were then normalized to the amount of drug applied to account for differences in solubilized drug in each formulation. The average concentration and the standard deviation was determined based on “n”=number of eyes assessed, rather than the number of animals. […]

[2] = test system: LPS-induced neutrophil infiltration into the lung; experiment: Lipopolysaccharide (LPS) mouse lung inflammation model; assay type: in vivo, CD-1 mice; details: 10 mg/kg oral, 1 hr before and 2 hrs after LPS 2.5 mg/kg intratracheal, BAL 6 hr post-LPS
Method: In this model, LPS was instilled into the lungs of mice to induce a neutrophilia in the lung tissue. The neutrophilia can be measured in the BAL fluid during lung lavage at various times after challenge with LPS. The neutrophilia develops with a significant increase in cells in the BAL after 6 hrs and achieves a maximum response by 24 hrs. CD-1 mice received lipopolysaccharide (LPS) 2.5 mg/kg in phosphate buffered saline (PBS) or PBS in a volume of 50 μL by intracheal instillation into the lung. The animals were lightly anesthetized using isofluorane to enable application of the LPS. When anesthetized the animals were placed on a board at an angle of 45°. The tongue was rolled to one side and LPS was administered directly into the trachea in a volume of 50 μL. The animal remained in position for 1-2 minutes to ensure the LPS remained in the lung. At the end of the LPS challenge time, animals were euthanized by an overdose of isofluorane. The trachea was exposed and the lungs were intubated using a 21 G catheter tube. The lungs were lavaged with 2×1 mL of PBS at room temperature. […] The differential cell counts were determined using an automated cell counter (Abraxia) set to measure mouse cells. Cell concentration of the resuspended sample was expressed as total cells recovered in the total volume of recovered BAL. […]

## CCC(O)(CCc1ccc(Oc2nc3c(SC)cccc3s2)c(OC)c1)C(F)(F)F (centres unmarked) [Compound 104, 1-{3-methoxy-4-[(4-methylsulfanyl-1,3-benzothiazol-2-yl)oxy]phenyl}-3-(trifluoromethyl)pentan-3-ol]
[1]
  Concentration of compound in retina 0.5 hr after administration per mg compound applied (Avg ± SD) n = 2: 3340 ± 1061 ng/mL per mg compound applied
[2]
  Effect on LPS-induced neutrophil infiltration into the lung (BAL): inhibitory effect

— US12686668B2, “Leukotriene synthesis inhibitors” (Naegis Pharmaceuticals Inc., priority 2019, dated 2026)
